Values quoted from earlier work in patent US6365601B1, “Process for extraction of piperine from piper species” (Council of Scientific and Industrial Research, priority 1999, dated 2002).

Settings: Reen and Rashmet, J. Ethnopharmacol., 1997

SMILES: O=C(/C=C/C=C/c1ccc2c(c1)OCO2)N1CCCCC1 [Piperine]
- chemoprotective effect against procarcinogens: potent chemoprotective effect
